Measurements as given in patent US10202350B2, “MCT4 inhibitors for treating disease” (Vettore, LLC, priority 2015, dated 2019).

Columns and labels:
Format in all cases: cell-based
MCT4 [1] = molecular target: T1, MCT4 (Homo sapiens (Human), UniProt O15427); assay: Lactate transport in MCT4-expressing MDA-MB-453 breast cancer cells (BCECF); conditions: MDA-MB-453 cells stably expressing MCT4; 50 mM L-lactate
Experimental: Assay 1: Lactate Transport in MCT4-Expressing MDA-MB-453 Breast Cancer Cells. […] The following is an exemplary procedure for assaying MCT4 activity of the compounds of Formula (I). Preparing BCECF-Loaded Cells: […] The cells are pelleted (300 g, 5 min), washed once with 1 mL Tyrode's Solution, pH 7.4, re-pelleted (300 g, 5 min), and resuspended in 1 mL Tyrode's Solution, pH 7.4. Lactate Transport Assay: […] Fluorescence measurements are performed on a PerkinElmer LS55 fluorescence spectrometer with dual excitation wavelengths achieved using a filter wheel (FL Winlab program: Fast Filter; […] Emission 535). After establishing baseline BCECF fluorescence (around 10-20 s), 50 μL of 1 M sodium L-lactate (Sigma-Aldrich) is added to the cuvette (final concentration: 50 mM) and rapidly mixed.

MCT4 [2] = molecular target: T1, MCT4; assay: MCT4-mediated lactate transport in NCI-H358 lung adenocarcinoma cells; conditions: native MCT4, 50 mM L-lactate
Experimental: Cells (˜7×10^6) are trypsinized (0.05% Trypsin-EDTA), pelleted (300 g, 5 min), and resuspended in 1 mL Tyrode's Solution, pH 7.4 (119 mM NaCl, 5 mM KCl, 25 mM HEPES, pH 7.4, 2 mM CaCl2, 2 mM MgCl2, 6 g/L glucose). 10 μL of a 30 mM DMSO stock of BCECF-AM ester (Life Technologies) is added and the cells are incubated at 37° C. for 5 min. The cells are pelleted (300 g, 5 min), washed once with 1 mL Tyrode's Solution, pH 7.4, re-pelleted (300 g, 5 min), and resuspended in 1 mL Tyrode's Solution, pH 7.4.
(§1) 2.5 μL BCECF-loaded cells, along with either 10 μL DMSO or 100×compound in DMSO, are added to 937.5 μL of Tyrode's Solution in a quartz 1.0 mL cuvette (PerkinElmer, B0631116). Fluorescence measurements are performed on a PerkinElmer LS55 fluorescence spectrometer with dual excitation wavelengths achieved using a filter wheel (FL Winlab program: Fast Filter; Excitation 490/440; Emission 535). After establishing baseline BCECF fluorescence (around 10-20 s), 50 μL of 1 M sodium L-lactate (Sigma-Aldrich) is added to the cuvette (final concentration: 50 mM) and rapidly mixed. The time-dependent decrease in BCECF fluorescence (490/440 ratio) may be fit to an exponential decay curve (Prism GraphPad) to determine the rate of lactate transport.
Assay 2: MCT4-Mediated Lactate Transport in NCI-H358 Lung Adenocarcinoma Cells.
NCI-H358 lung adenocarcinoma cells may be used to measure MCT4 activity in cells with high native levels of MCT4 and low levels of MCT1 and are known to those with skill in the art. Preparation of BCECF-loaded cells and lactate transport activity may be determined as described for Assay 1.

MCT1 = MCT1 (Homo sapiens (Human), UniProt P53985); assay: MCT1-mediated lactate transport in BT20 breast cancer cells; conditions: native MCT1, 10 mM L-lactate
Experimental: (§2) 10 μL of a 30 mM DMSO stock of BCECF-AM ester (Life Technologies) is added and the cells are incubated at 37° C. for 5 min. The cells are pelleted (300 g, 5 min), washed once with 1 mL Tyrode's Solution, pH 7.4, re-pelleted (300 g, 5 min), and resuspended in 1 mL Tyrode's Solution, pH 7.4.
as §1, with “Fluorescence measurements are performed on a PerkinElmer LS55 fluorescence spectrometer with dual excitation wavelengths achieved using a filter wheel (FL Winlab program: Fast Filter; Excitation 490/440; Emission 535).” left out
Assay 4: MCT1-Mediated Lactate Transport in BT20 Breast Cancer Cells.
Preparation of BCECF loaded cells are as described for Assay 1. Lactate transport assay is as described for Assay 1, except 10 mM L-lactate (rather than 50 mM) is added.

MCT4 [3] = molecular target: T1, MCT4; assay: MCT4-mediated lactate transport in MDA-MB-231 breast cancer cells; conditions: MDA-MB-231 cells, native MCT4; 50 mM L-lactate
Experimental: as §2
as §1, with “Fluorescence measurements are performed on a PerkinElmer LS55 fluorescence spectrometer with dual excitation wavelengths achieved using a filter wheel (FL Winlab program: Fast Filter; Excitation 490/440; Emission 535).” left out
Preparation of BCECF-loaded cells and lactate transport activity may be determined as described for Assay 1.

MCT1, sequence (P53985 whole entry): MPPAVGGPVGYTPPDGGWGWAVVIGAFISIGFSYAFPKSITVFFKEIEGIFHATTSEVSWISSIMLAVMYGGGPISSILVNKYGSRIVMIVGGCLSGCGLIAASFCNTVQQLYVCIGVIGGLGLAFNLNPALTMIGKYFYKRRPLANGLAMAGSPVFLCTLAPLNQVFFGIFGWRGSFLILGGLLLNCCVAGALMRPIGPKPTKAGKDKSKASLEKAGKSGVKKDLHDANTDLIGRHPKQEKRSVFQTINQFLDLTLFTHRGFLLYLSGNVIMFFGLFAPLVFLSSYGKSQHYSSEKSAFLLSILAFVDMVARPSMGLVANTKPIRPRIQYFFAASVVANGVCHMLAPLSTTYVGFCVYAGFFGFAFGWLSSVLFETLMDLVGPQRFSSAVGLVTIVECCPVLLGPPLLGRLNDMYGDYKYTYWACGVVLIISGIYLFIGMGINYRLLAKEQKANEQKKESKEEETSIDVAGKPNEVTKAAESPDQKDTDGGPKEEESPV
MCT1, sequence (P35613 140-385 partner): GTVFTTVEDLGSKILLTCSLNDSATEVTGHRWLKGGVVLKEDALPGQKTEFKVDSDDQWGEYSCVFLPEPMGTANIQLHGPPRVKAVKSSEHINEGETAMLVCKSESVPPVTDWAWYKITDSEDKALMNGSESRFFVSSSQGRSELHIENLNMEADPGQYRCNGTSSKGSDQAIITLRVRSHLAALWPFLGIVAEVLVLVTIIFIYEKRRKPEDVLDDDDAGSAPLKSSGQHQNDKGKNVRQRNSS
T1 sequence (O15427 whole entry, looked up): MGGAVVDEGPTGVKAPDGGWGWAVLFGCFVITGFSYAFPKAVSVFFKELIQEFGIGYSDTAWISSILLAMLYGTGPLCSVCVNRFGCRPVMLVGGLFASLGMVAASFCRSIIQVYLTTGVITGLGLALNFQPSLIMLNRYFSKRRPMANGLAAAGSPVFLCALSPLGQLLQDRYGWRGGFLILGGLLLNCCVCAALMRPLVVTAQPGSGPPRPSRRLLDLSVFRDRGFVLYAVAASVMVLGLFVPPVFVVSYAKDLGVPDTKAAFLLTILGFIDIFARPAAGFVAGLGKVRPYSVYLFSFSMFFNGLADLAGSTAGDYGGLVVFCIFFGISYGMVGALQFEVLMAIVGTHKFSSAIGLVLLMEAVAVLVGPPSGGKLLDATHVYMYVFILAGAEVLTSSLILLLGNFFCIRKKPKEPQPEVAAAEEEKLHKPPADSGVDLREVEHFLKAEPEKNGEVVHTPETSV
T1 sequence (P35613 whole entry partner, looked up): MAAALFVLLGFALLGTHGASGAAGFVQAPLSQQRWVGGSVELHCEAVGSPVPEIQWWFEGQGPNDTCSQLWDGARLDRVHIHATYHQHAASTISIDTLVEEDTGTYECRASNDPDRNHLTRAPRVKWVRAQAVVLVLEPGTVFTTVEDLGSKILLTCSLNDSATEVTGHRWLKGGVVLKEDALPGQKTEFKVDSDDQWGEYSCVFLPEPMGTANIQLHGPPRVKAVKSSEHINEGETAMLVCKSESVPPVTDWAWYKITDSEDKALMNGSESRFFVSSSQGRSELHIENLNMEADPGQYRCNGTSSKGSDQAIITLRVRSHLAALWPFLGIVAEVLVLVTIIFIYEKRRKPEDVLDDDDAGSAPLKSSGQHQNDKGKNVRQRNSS

IC50 (MCT4 [1])	IC50 (MCT4 [2])	IC50 (MCT1; Table 2)	IC50 (MCT4 [3])	IC50 (MCT1; Table 3)	SMILES
340 nM	140 nM	50000 nM	–	–	CC(C)(OCc1cc(-c2ccccc2)n(Cc2cccc(Cl)c2)n1)C(=O)O [Example 1, 2-[[1-[(3-Chlorophenyl)methyl]-5-phenyl-pyrazol-3-yl]methoxy]-2-methyl-propanoic Acid]
–	–	–	3.1 nM	11000 nM	COc1ccccc1Cn1nc(COC(C)(C)C(=O)O)cc1-c1cccc(OCC(C)C)c1 [Example 61, 2-([1-[(2-methoxyphenyl)methyl]-5-[3-(2-methylpropoxy)phenyl]-1H-pyrazol-3-yl]methoxy)-2-methylpropanoic acid]
–	–	–	33 nM	27000 nM	COc1cccc(Cn2nc(COC(C)(C)C(=O)O)cc2-c2cccc(OCC(C)C)c2)c1 [Example 62, 2-([1-[(3-methoxyphenyl)methyl]-5-[3-(2-methylpropoxy)phenyl]-1H-pyrazol-3-yl]methoxy)-2-methylpropanoic acid]
–	–	–	37 nM	17000 nM	COc1ccc(Cn2nc(COC(C)(C)C(=O)O)cc2-c2cccc(OCC(C)C)c2)cc1 [Example 63, 2-([1-[(4-methoxyphenyl)methyl]-5-[3-(2-methylpropoxy)phenyl]-1H-pyrazol-3-yl]methoxy)-2-methylpropanoic acid]
–	–	–	11 nM	17000 nM	CCC(CC)(OCc1cc(-c2cccc(OC)c2)n(Cc2ccccc2Cl)n1)C(=O)O [Example 67]
–	–	–	5800 nM	> 100000 nM	CC(C)C(=O)Nc1cccc(-c2cc(COC(C)(C)C(=O)O)nn2Cc2ccccc2Cl)c1 [Example 69, 2-([1-[(2-Chlorophenyl)methyl]-5-[3-(2-methylpropanamido)phenyl]-1H-pyrazol-3-yl]methoxy)-2-methylpropanoic Acid]
–	–	–	220 nM	45000 nM	CNc1cccc(-c2cc(COC(C)(C)C(=O)O)nn2Cc2ccccc2Cl)c1 [Example 72, 2-([1-[(2-Chlorophenyl)methyl]-5-[3-(methylamino)phenyl]-1H-pyrazol-3-yl]methoxy)-2-methylpropanoic Acid]
–	–	–	21 nM	> 11000 nM	CC(C)CNc1cccc(-c2cc(COC(C)(C)C(=O)O)nn2Cc2ccccc2Cl)c1 [Example 73, 2-([1-[(2-chlorophenyl)methyl]-5-[3-[(2-methylpropyl)amino]phenyl]-1H-pyrazol-3-yl]methoxy)-2-methylpropanoic Acid]
–	–	–	6400 nM	> 100000 nM	CC(C)NC(=O)c1cccc(-c2cc(COC(C)(C)C(=O)O)nn2Cc2ccccc2Cl)c1 [Example 74, 2-([1-[(o-Chlorophenyl)methyl]-5-[m-(isopropylamino)carbonylphenyl]-1H-pyrazol-3-yl]methoxy)-2-methylpropionic Acid]
–	–	–	59 nM	15000 nM	CC(C)(OCc1cc(-c2cccc(O)c2)n(Cc2ccccc2Cl)n1)C(=O)O [Example 79, 2-[[1-[(2-Chlorophenyl)methyl]-5-(3-hydroxyphenyl)pyrazol-3-yl]methoxy]-2-methyl-propanoic Acid]
–	–	–	6300 nM	6600 nM	COc1cccc(-c2cc(COC(C)(C)C(=O)NS(C)(=O)=O)nn2Cc2ccccc2Cl)c1 [Example 81, 2-[[1-[(2-chlorophenyl)methyl]-5-(3-methoxyphenyl)pyrazol-3-yl]methoxy]-2-methyl-N-methylsulfonyl-propanamide]
–	–	–	460 nM	16000 nM	COC(=O)C(C)(C)OCc1cc(-c2cccc(OC)c2)n(Cc2ccccc2Cl)n1 [Example 82, Methyl 2-[[1-[(2-chlorophenyl)methyl]-5-(3-methoxyphenyl)pyrazol-3-yl]methoxy]-2-methyl-propanoate]

Second part, the compound before the results:

SMILES	IC50 (MCT4 [1])	IC50 (MCT4 [2])	IC50 (MCT1; Table 2)	IC50 (MCT4 [3])	IC50 (MCT1; Table 3)
CC(C)(OCc1cc(-c2ccc(Cl)cc2)n(Cc2ccc(Cl)cc2)n1)C(=O)O [Example 2]	450 nM	240 nM	29000 nM	–	–
CC(C)(OCc1cc(-c2ccc(Cl)cc2)n(Cc2ccccc2Cl)n1)C(=O)O [Example 3, 2-[[5-(4-Chlorophenyl)-1-[(2-chlorophenyl)methyl]pyrazol-3-yl]methoxy]-2-methyl-propanoic acid]	72 nM	60 nM	25000 nM	–	–
CC(C)(OCc1cc(-c2ccc(F)cc2)n(Cc2ccccc2Cl)n1)C(=O)O [Example 4, 2-[[1-[(2-Chlorophenyl)methyl]-5-(4-fluorophenyl)pyrazol-3-yl]methoxy]-2-methyl-propanoic acid]	68 nM	54 nM	33000 nM	–	–
CC(C)(OCc1cc(-c2ccc(Cl)cc2)n(Cc2ccc(Cl)cc2Cl)n1)C(=O)O [Example 5, 2-[[5-(4-Chlorophenyl)-1-[(2,4-dichlorophenyl)methyl]pyrazol-3-yl]methoxy]-2-methyl-propanoic acid]	160 nM	63 nM	1800 nM	–	–
O=C(O)COCc1cc(-c2ccc(Cl)cc2)n(Cc2ccc(Cl)cc2Cl)n1 [Example 6, 2-[[5-(4-Chlorophenyl)-1-[(2,4-dichlorophenyl)methyl]pyrazol-3-yl]methoxy]acetic acid]	2400 nM	4600 nM	6600 nM	–	–
CC(C)(OCc1cc(-c2ccc(Cl)cc2)n(Cc2ccccc2)n1)C(=O)O [Example 7, 2-[[1-Benzyl-5-(4-Chlorophenyl)pyrazol-3-yl]methoxy]-2-methyl-propanoic acid]	720 nM	460 nM	70000 nM	–	–
CC(C)(OCc1cc(-c2ccccc2)n(Cc2ccccc2Cl)n1)C(=O)O [Example 8, 2-[[1-[(2-Chlorophenyl)methyl]-5-phenyl-pyrazol-3-yl]methoxy]-2-methyl-propanoic acid]	69 nM	81 nM	46000 nM	–	–
CC(C)(OCc1cc(-c2ccc(Cl)cc2)n(Cc2cccnc2)n1)C(=O)O [Example 23, 2-[[5-(4-Chlorophenyl)-1-(3-pyridylmethyl)pyrazol-3-yl]methoxy]-2-methyl-propanoic acid]	1500 nM	2100 nM	–	–	–
CC(C)(OCc1cc(-c2cccc(S(C)(=O)=O)c2)n(Cc2ccccc2Cl)n1)C(=O)O [Example 70, 2-([1-[(2-chlorophenyl)methyl]-5-(3-methanesulfonylphenyl)-1H-pyrazol-3-yl]methoxy)-2-methylpropanoic Acid]	–	–	–	9300 nM	> 100000 nM
CC(C)(OCc1cc(-c2cccc(NS(C)(=O)=O)c2)n(Cc2ccccc2Cl)n1)C(=O)O [Example 71, 2-([1-[(2-chlorophenyl)methyl]-5-(3-methanesulfonamidophenyl)-1H-pyrazol-3-yl]methoxy)-2-methylpropanoic Acid]	–	–	–	34000 nM	64000 nM
CC(C)(OCc1cc(Nc2ccccc2)n(Cc2ccccc2Cl)n1)C(=O)O [Example 75, 2-([1-[(2-chlorophenyl)methyl]-5-(phenylamino)-1H-pyrazol-3-yl]methoxy)-2-methylpropanoic Acid]	–	–	–	1700 nM	> 100000 nM
CC(C)(OCc1cc(Oc2ccccc2)n(Cc2ccccc2Cl)n1)C(=O)O [Example 76, 2-([1-[(2-Chlorophenyl)methyl]-5-phenoxy-1H-pyrazol-3-yl]methoxy)-2-methylpropanoic Acid]	–	–	–	400 nM	38000 nM
